Laboratory results taken from patent US7423015B1, “Antihelminthic drugs as a treatment for hyperproliferative diseases” (Board of Regents, The University of Texas System, priority 2001, dated 2008).
Where two headings read alike, the source gives them in different places.

Tests used:
H1299 = assay: Cell viability, trypan blue cell count assay; assay type: cell-based; conditions: Homo sapiens, NCI-H1299, H1299 (lung, p53 deleted), 100% = untreated cells
Protocol: (§1) All cell lines were grown in RPMI 1640 medium supplemented with 5% fetal bovine serum and 5% CO2. All experiments were done when the cells were 70% confluent. For cell growth measurements, 5×10^4 cells were plated in each well of six-well plates. Control and BZ-treated (0.05 μg/ml) cells were trypsinized and counted using a hemocytometer. Experiments were done in triplicate and the mean and standard deviation were determined by standard methods.
(§2) To further investigate the relationship between the induction of functional p53 and the subsequent apoptosis mediated by these drugs, the inventors posited that if BZs require wild-type p53 in order to exert their effect, then fenbendazole and mebendazole would not be cytotoxic to the many tumor lines producing a mutated p53 protein. To investigate this possibility, human cell lines derived from NSCLC origins of differing p53 status were further analyzed by a 5-day cell growth assay. The cells were plated onto a six-well plate, and the viability of the cells was determined by trypan blue exclusion. Cells were counted on a hemocytometer. The values shown are the means ±standard deviation of triplicate samples. Duplicate experiments gave similar results. H322 is a human lung adenocarcinoma line that produces a mutant p53 protein. […] However, fenbendazole and mebendazole induced nuclear accumulation of p53 only in the H460 cell line, which carries wild-type p53 genes. […] Cells were exposed to FZ (filled bar) or MZ (hatched bar) for 24 hr. A concentration of 0.05 μg/ml FZ and MZ was used. An immunoblot analysis of nuclear p53 was also performed to determine whether these drugs induced the production of p53. Equal amounts of protein extracts from each cell line before and after treatment were used for this analysis.

HT1080 = assay: Cell viability, trypan blue cell count assay; assay type: cell-based; conditions: Homo sapiens, HT-1080, HT1080 (fibrosarcoma, wild-type p53), 100% = untreated cells
Protocol: as §1, §2

HeLa = assay: Cell viability, trypan blue cell count assay; assay type: cell-based; conditions: Homo sapiens, HeLa (cervical, wild-type p53 inactivated by E6), 100% = untreated cells
Protocol: as §1, §2

H596 = assay: Cell viability, trypan blue cell count assay; assay type: cell-based; conditions: Homo sapiens
Protocol: as §1, §2

MCF-7 = assay: Cell viability, trypan blue cell count assay; assay type: cell-based; conditions: Homo sapiens, MCF7, MCF-7 (breast, wild-type p53), 100% = untreated cells
Protocol: as §1, §2

Hep 3B = assay: Cell viability, trypan blue cell count assay; assay type: cell-based; conditions: Homo sapiens, Hep3B, Hep 3B (liver, p53 deleted), 100% = untreated cells
Protocol: as §1, §2

H226Br = assay: Cell viability, trypan blue cell count assay; assay type: cell-based; conditions: Homo sapiens, H226Br (lung, R254), 100% = untreated cells
Protocol: as §1, §2

H358 = assay: Cell viability, trypan blue cell count assay; assay type: cell-based; conditions: Homo sapiens, NCI-H358, H358 (lung, p53 deleted), 100% = untreated cells
Protocol: as §1, §2

SK-OV-433 = assay: Cell viability, trypan blue cell count assay; assay type: cell-based; conditions: Homo sapiens, SK-OV-433 (ovarian, wild-type p53), 100% = untreated cells
Protocol: as §1, §2

H549 = assay: Cell viability, trypan blue cell count assay; assay type: cell-based; conditions: Homo sapiens, H549 (lung, wild-type p53), 100% = untreated cells
Protocol: as §1, §2

H460 = assay: Cell viability, trypan blue cell count assay; assay type: cell-based; conditions: Homo sapiens, NCI-H460, H460 (lung, wild-type p53), 100% = untreated cells
Protocol: as §1, §2

p53 protein = assay: p53 induction, immunoblot analysis of nuclear extracts; assay type: cell-based, human; set-up: p53 Induction: dose or concentration left out as unconfirmed
MDA 231 = assay: Cell viability, trypan blue cell count assay; assay type: cell-based; set-up: dose or concentration left out as unconfirmed; conditions: Homo sapiens, MDA-MB-231, read-out: % Cell Viability
Protocol: as §1, §2

H322 = assay: Cell viability, trypan blue cell count assay; assay type: cell-based; set-up: dose or concentration left out as unconfirmed; conditions: Homo sapiens, NCI-H322, read-out: % Cell Viability
Protocol: as §1, §2

SW480 = assay: Cell viability, trypan blue cell count assay; assay type: cell-based; set-up: dose or concentration left out as unconfirmed; conditions: Homo sapiens, SW480, read-out: % Cell Viability
Protocol: as §1, §2

RD = assay: Cell viability, trypan blue cell count assay; assay type: cell-based; set-up: dose or concentration left out as unconfirmed; conditions: Homo sapiens, read-out: % Cell Viability
Protocol: as §1, §2

Saos-2 = assay: Cell viability, trypan blue cell count assay; assay type: cell-based; conditions: Homo sapiens, Saos-2 (osteosarcoma, p53 deleted), 100% = untreated cells

Row | Structure (SMILES) | viability at 0.05 µg/mL (H1299) [%] | viability at 0.05 µg/mL (HT1080) [%] | viability at 0.05 µg/mL (HeLa) [%] | viability at 0.05 µg/mL (MCF-7) [%] | viability at 0.05 µg/mL (Hep 3B) [%] | viability at 0.05 µg/mL (H226Br) [%] | viability at 0.05 µg/mL (H358) [%] | viability at 0.05 µg/mL (SK-OV-433) [%] | viability at 0.05 µg/mL (H549) [%] | viability at 0.05 µg/mL (H460) [%] | p53 Induction (p53 protein; H226Br) | p53 Induction (p53 protein; H322) | p53 Induction (p53 protein; H358) | p53 Induction (p53 protein; H460) | p53 Induction (p53 protein; H549) | p53 Induction (p53 protein; H596) | p53 Induction (p53 protein; H1299) | p53 Induction (p53 protein; HeLa) | p53 Induction (p53 protein; Hep 3B) | p53 Induction (p53 protein; MCF-7) | also measured
1 | COC(=O)Nc1nc2ccc(C(=O)c3ccccc3)cc2[nH]1 [Mebendazole, Methyl 5-benzoylbenzimidazole-2-carbamate] | 89.2 ± 4.3 | 44.5 ± 7.7 | 92.4 ± 6.27 | 24.3 ± 8.4 | 83.2 ± 1.5 | 64.24 ± 0.2 | 73.5 ± 1.8 | 28.1 ± 6.1 | 39.2 ± 10.7 | 25.2 ± 7.6 | No | No | No | Yes | Yes | No | No | No | No | Yes | viability (H596; NCI-H596, H596 (lung, R245C), 100% = untreated cells, read-out: % Cell Viability): 86.2 ± 8%; p53 Induction (p53 protein; MDA 231): No; p53 Induction (p53 protein; RD): No; p53 Induction (p53 protein; SK-OV-433): Yes; p53 Induction (p53 protein; SW480): No; p53 Induction (p53 protein; Saos-2): No; p53 Induction (p53 protein; SiHa): No; viability (MDA 231): 66.2 ± 15.8%; viability (H322): 68.5 ± 3.7%; viability (SW480): 63.6 ± 13.3%; viability (RD): 72.2 ± 2.8%; viability at 0.05 µg/mL (Saos-2): 65.4 ± 10.1%
2 | COC(=O)Nc1nc2ccc(Sc3ccccc3)cc2[nH]1 [Fenbendazole, methy 5-(phenylthio)-2-benzimidazole-2-carbamate] | 89.2 ± 1.1 | 54.5 ± 12 | 93.6 ± 7.4 | 43.9 ± 7.3 | 79.5 ± 12.5 | 80.1 ± 11.1 | 88.3 ± 17.8 | 52.5 ± 13.2 | 46.4 ± 13.3 | 39.2 ± 6.4 | No | No | No | Yes | Yes | No | No | No | No | Yes | viability (H596; NCI-H596, read-out: % Cell Viability): 86.7 ± 11.5%; concentration at which induction of p53 became detectable (p53 protein; H460): 0.01 µg/mL; induction of p53 production (p53 protein; HeLa (HPV-18) and SiHa (HPV-16) cells, 48 h, total cell proteins): no induction; p53 Induction (p53 protein; MDA 231): No; p53 Induction (p53 protein; RD): No; p53 Induction (p53 protein; SK-OV-433): Yes; p53 Induction (p53 protein; SW480): No; p53 Induction (p53 protein; Saos-2): No; p53 Induction (p53 protein; SiHa): No; viability (MDA 231): 65.3 ± 5%; viability (H322): 65.9 ± 4.9%; viability (SW480): 70.6 ± 7.6%; viability (RD): 78.7 ± 12%; viability at 0.05 µg/mL (Saos-2): 76.5 ± 5.9%
